Source: ChEMBL document CHEMBL1201862, “PubChem BioAssay data set” (2004)
Active and inactive are the calls of the source.

Columns and labels:
[1] = molecular target: Induced myeloid leukemia cell differentiation protein Mcl-1 (Homo sapiens, UniProt Q07820); type: functional
[2] = molecular target: T1, RNA-binding protein pos-1 (Caenorhabditis elegans, UniProt G5EF15); test: inhibitors of POS-1/mex-3 RNA binding, dose response, biochemical, fluorescence polarization (AID 1964);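 note: purified POS-1 fused to maltose binding protein made in E. coli; potency of compounds blocking POS-1 binding to fluorescent RNA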
T1 sequence (G5EF15 whole entry): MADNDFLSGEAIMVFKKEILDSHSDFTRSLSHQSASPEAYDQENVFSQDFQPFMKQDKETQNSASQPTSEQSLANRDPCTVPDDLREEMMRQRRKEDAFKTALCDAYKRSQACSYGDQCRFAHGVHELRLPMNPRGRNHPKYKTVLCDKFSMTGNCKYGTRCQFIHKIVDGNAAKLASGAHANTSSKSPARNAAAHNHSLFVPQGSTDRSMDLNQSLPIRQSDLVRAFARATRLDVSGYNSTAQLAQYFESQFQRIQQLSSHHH

[3] = molecular target: Glucose-6-phosphate 1-dehydrogenase (Homo sapiens, UniProt P11413); test: human G6PD enzyme inhibitors, dose response, selectivity assay for P. falciparum G6PD inhibitor project, biochemical, fluorescence (AID 504792); type: functional
[4] = molecular target: T2, Zinc finger protein mex-5 (Caenorhabditis elegans, UniProt Q9XUB2); test: MEX-5/TCR-2 RNA interaction inhibitors, dose response, biochemical, C. elegans, fluorescence polarization (AID 1960)
T2 sequence (Q9XUB2 whole entry): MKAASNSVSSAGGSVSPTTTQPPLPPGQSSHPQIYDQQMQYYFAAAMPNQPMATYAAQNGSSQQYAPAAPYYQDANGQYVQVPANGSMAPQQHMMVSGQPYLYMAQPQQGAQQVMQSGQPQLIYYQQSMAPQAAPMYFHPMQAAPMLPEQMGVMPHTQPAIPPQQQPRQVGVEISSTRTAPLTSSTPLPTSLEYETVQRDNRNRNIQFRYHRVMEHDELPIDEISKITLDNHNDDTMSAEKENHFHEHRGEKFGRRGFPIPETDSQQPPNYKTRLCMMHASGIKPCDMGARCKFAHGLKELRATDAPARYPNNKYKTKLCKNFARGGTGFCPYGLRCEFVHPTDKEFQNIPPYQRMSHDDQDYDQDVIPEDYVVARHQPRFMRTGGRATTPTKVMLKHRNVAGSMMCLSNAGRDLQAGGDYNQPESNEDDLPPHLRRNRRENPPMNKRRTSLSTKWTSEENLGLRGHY

[5] = molecular target: Dual specificity tyrosine-phosphorylation-regulated kinase 1A (Rattus norvegicus, UniProt Q63470); type: biochemical, Homo sapiens
Escherichia coli = test: microbe, parasite or virus in culture
Phospholipase A2 = Phospholipase A2 (Homo sapiens, UniProt P04054); type: functional;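 note: confirmatory dose-response counterscreen on phospholipase A2, testing hits that came from an ultra-high-throughput screen for ATG4B inhibitors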
HEK293 [6] = test: cells; conditions: Homo sapiens
Cysteine protease ATG4B = molecular target: T3, Cysteine protease ATG4B (Homo sapiens, UniProt Q9Y4P1); type: functional;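 note: Fluorescence-based dose-response confirmation assay measuring inhibition of ATG4B activity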
T3 sequence (Q9Y4P1 whole entry): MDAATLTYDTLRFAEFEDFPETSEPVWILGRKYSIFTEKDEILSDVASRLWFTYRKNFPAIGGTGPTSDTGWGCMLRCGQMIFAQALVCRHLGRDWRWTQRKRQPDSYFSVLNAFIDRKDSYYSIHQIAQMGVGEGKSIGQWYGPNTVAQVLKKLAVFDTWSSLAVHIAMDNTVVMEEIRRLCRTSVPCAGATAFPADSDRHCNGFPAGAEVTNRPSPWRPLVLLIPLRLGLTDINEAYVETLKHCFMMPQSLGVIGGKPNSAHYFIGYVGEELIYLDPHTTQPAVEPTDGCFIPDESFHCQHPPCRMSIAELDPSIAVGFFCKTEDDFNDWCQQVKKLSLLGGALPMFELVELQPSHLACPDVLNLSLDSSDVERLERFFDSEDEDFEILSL

HEK293 [7] = test: cells; conditions: Homo sapiens; remark: listed apart in the source

Chain of Phospholipase A2 (P04054 whole entry): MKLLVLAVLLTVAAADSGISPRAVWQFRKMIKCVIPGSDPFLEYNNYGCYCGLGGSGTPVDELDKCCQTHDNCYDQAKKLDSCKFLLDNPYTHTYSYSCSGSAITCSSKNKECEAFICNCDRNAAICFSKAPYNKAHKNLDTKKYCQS
Chain of Glucose-6-phosphate 1-dehydrogenase (P11413 whole entry): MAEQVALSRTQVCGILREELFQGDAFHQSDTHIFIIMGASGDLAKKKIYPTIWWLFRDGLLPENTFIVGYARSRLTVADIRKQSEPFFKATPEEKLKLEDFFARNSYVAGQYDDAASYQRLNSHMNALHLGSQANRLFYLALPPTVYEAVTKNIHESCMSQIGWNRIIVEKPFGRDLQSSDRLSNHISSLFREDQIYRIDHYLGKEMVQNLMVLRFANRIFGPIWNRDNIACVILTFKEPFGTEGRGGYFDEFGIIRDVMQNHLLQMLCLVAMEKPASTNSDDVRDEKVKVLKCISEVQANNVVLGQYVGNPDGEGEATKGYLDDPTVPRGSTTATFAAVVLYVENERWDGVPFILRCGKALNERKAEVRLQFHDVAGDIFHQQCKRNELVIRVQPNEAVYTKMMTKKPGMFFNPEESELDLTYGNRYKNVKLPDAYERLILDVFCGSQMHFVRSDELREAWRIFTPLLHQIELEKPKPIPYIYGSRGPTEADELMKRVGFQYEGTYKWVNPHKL
Chain of Induced myeloid leukemia cell differentiation protein Mcl-1 (Q07820 whole entry, the tested form may be a part): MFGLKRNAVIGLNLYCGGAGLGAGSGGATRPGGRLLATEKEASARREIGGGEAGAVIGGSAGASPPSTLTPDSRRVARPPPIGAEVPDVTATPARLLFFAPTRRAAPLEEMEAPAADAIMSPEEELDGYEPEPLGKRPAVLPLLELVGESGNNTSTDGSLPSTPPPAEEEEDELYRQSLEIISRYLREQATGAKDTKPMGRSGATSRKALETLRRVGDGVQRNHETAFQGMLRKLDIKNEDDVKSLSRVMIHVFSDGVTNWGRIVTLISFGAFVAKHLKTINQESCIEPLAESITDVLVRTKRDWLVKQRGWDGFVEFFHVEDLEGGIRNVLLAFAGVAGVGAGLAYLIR

COc1cc(O)c(C(=O)O)c(-c2cc(O)c(O)cc2C)c1 [ALTENUSIN]
IC50 [1]: 4.15 µM (active)
EC50 [2]: 31 µM (active)
IC50 [3]: 31 µM (inactive)
EC50 [4]: > 300 µM (inconclusive)

Oc1ccc(-c2nc3ccccc3nc2-c2ccc(O)cc2O)c(O)c1
AC50 [5]: 3.12 µM (active)

COc1ccc(S(=O)(=O)NCc2ccco2)c2ccccc12
AC50 (Escherichia coli): 28.5 µM (active)

CCn1c(SCc2ccccc2Cl)nc2nc3c(cc2c1=O)CCCC3
IC50 (Phospholipase A2): 4.98 µM (active)
EC50 (HEK293 [6]): > 59.6 µM (inactive)
IC50 (Cysteine protease ATG4B): 12.5 µM (active)
EC50 (HEK293 [7]): > 59.6 µM (inactive)

Cn1c(C(=O)NC2CC2)cc2c(=O)n(C)c3ccccc3c21
AC50 [5]: 15.5 µM (active)

Cc1ccccc1C(=O)N1CCC(C(=O)Nc2ccccc2Cl)CC1
AC50 (Escherichia coli): 27.8 µM (active)
